Data taken from PubChem BioAssay (NCI).
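Cells were grown in 96-well plates and exposed to each compound for 48 hours at five concentrations; endpoints were interpolated linearly between bracketing concentrations, or set to the highest concentration if not reached. GI50 marks 50% less growth. TGI is the concentration that stops growth completely.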

Legend:
Assay in all cases: NCI anticancer screen, dose series, 48 h
786-0 renal = test system: 786-0 renal
A498 renal = test system: A498 renal
A549 NSCLC = test system: A549 NSCLC
ACHN renal = test system: ACHN renal
BT-549 breast = test system: BT-549 breast
CAKI-1 renal = test system: CAKI-1 renal
CCRF-CEM leukemia = test system: CCRF-CEM leukemia
COLO 205 colon = test system: COLO 205 colon
DU-145 prostate = test system: DU-145 prostate
EKVX NSCLC = test system: EKVX NSCLC
HCC-2998 colon = test system: HCC-2998 colon
HCT-116 colon = test system: HCT-116 colon
HCT-15 colon = test system: HCT-15 colon
HL-60(TB) leukemia = test system: HL-60(TB) leukemia
HOP-62 NSCLC = test system: HOP-62 NSCLC
HOP-92 NSCLC = test system: HOP-92 NSCLC
HS 578T breast = test system: HS 578T breast
HT29 colon = test system: HT29 colon
IGROV1 ovarian = test system: IGROV1 ovarian
K-562 leukemia = test system: K-562 leukemia
KM12 colon = test system: KM12 colon
LOX IMVI melanoma = test system: LOX IMVI melanoma
M14 melanoma = test system: M14 melanoma
MALME-3M melanoma = test system: MALME-3M melanoma
MDA-MB-231 breast = test system: MDA-MB-231 breast
MDA-MB-435 = test system: MDA-MB-435
MOLT-4 leukemia = test system: MOLT-4 leukemia
NCI-H226 lung = test system: NCI-H226 lung
NCI-H23 lung = test system: NCI-H23 lung
NCI-H460 lung = test system: NCI-H460 lung
NCI-H522 lung = test system: NCI-H522 lung
NCI/ADR-RES ovarian = test system: NCI/ADR-RES ovarian
OVCAR-3 ovarian = test system: OVCAR-3 ovarian
OVCAR-4 ovarian = test system: OVCAR-4 ovarian
OVCAR-5 ovarian = test system: OVCAR-5 ovarian
OVCAR-8 ovarian = test system: OVCAR-8 ovarian
PC-3 prostate = test system: PC-3 prostate
RPMI-8226 leukemia = test system: RPMI-8226 leukemia
RXF 393 renal = test system: RXF 393 renal
SF-268 CNS = test system: SF-268 CNS
SF-295 CNS = test system: SF-295 CNS
SF-539 CNS = test system: SF-539 CNS
SK-MEL-2 melanoma = test system: SK-MEL-2 melanoma
SK-MEL-28 melanoma = test system: SK-MEL-28 melanoma
SK-MEL-5 melanoma = test system: SK-MEL-5 melanoma
SK-OV-3 ovarian = test system: SK-OV-3 ovarian
SN12C renal = test system: SN12C renal
SNB-19 CNS = test system: SNB-19 CNS
SNB-75 CNS = test system: SNB-75 CNS
SR leukemia = test system: SR leukemia
SW-620 colon = test system: SW-620 colon
T-47D breast = test system: T-47D breast
TK-10 renal = test system: TK-10 renal
U251 CNS = test system: U251 CNS
UACC-257 melanoma = test system: UACC-257 melanoma
UACC-62 melanoma = test system: UACC-62 melanoma
UO-31 renal = test system: UO-31 renal

In the case of `CCN1CCN(c2nc(NNC(=O)Cc3ccccc3)nc(N3CCN(C(c4ccccc4)c4ccccc4)CC3)n2)CC1`, the GI50 (786-0 renal) is reported as 1.74 µM, the TGI (786-0 renal) is reported as 3.14 µM and the GI50 (A498 renal) is reported as 7.3 µM. The TGI (A498 renal) was 20.9 µM, the GI50 (A549 NSCLC) was 2.17 µM and the TGI (A549 NSCLC) was 5.23 µM. It also gave a GI50 (ACHN renal) of 1.65 µM, a TGI (ACHN renal) of 3.07 µM and a GI50 (BT-549 breast) of 1.67 µM. For the same molecule, the TGI (BT-549 breast) was 3.61 µM, the GI50 (CAKI-1 renal) was 1.7 µM and the TGI (CAKI-1 renal) was 3.31 µM. It also gave a GI50 (CCRF-CEM leukemia) of 2.51 µM, a TGI (CCRF-CEM leukemia) of 6.71 µM and a GI50 (COLO 205 colon) of 1.88 µM. It also gave a TGI (COLO 205 colon) of 3.82 µM, a GI50 (DU-145 prostate) of 2.73 µM and a TGI (DU-145 prostate) of 7.2 µM. The GI50 (EKVX NSCLC) was 9.99 µM, the TGI (EKVX NSCLC) was 30 µM and the GI50 (HCC-2998 colon) was 1.71 µM. For the same molecule, the TGI (HCC-2998 colon) was 3.39 µM, the GI50 (HCT-116 colon) was 1.72 µM and the TGI (HCT-116 colon) was 3.13 µM. The GI50 (HCT-15 colon) was 1.9 µM, the TGI (HCT-15 colon) was 3.76 µM and the GI50 (HL-60(TB) leukemia) was 1.89 µM. The TGI (HL-60(TB) leukemia) was 4.04 µM, the GI50 (HOP-62 NSCLC) was 2.06 µM and the TGI (HOP-62 NSCLC) was 5.08 µM. The GI50 (HOP-92 NSCLC) was 1.89 µM, the TGI (HOP-92 NSCLC) was 4.7 µM and the GI50 (HS 578T breast) was 1.68 µM. The TGI (HS 578T breast) was 3.79 µM, the GI50 (HT29 colon) was 2.24 µM and the TGI (HT29 colon) was 5.66 µM. For the same molecule, the GI50 (IGROV1 ovarian) was 2.03 µM, the TGI (IGROV1 ovarian) was 5.02 µM and the GI50 (K-562 leukemia) was 1.8 µM. The TGI (K-562 leukemia) was 4.38 µM, the GI50 (KM12 colon) was 2.07 µM and the TGI (KM12 colon) was 4.35 µM. For the same molecule, the GI50 (LOX IMVI melanoma) was 1.89 µM, the TGI (LOX IMVI melanoma) was 3.43 µM and the GI50 (M14 melanoma) was 1.83 µM. For the same molecule, the TGI (M14 melanoma) was 3.41 µM, the GI50 (MALME-3M melanoma) was 1.64 µM and the TGI (MALME-3M melanoma) was 3.29 µM. The GI50 (MDA-MB-231 breast) was 1.99 µM, the TGI (MDA-MB-231 breast) was 3.69 µM and the GI50 (MDA-MB-435) was 1.75 µM. It also gave a TGI (MDA-MB-435) of 3.2 µM, a GI50 (MOLT-4 leukemia) of 2.63 µM and a TGI (MOLT-4 leukemia) of 8.39 µM. It also gave a GI50 (NCI-H226 lung) of 16.9 µM, a TGI (NCI-H226 lung) of 42.7 µM and a GI50 (NCI-H23 lung) of 5.51 µM. For the same molecule, the TGI (NCI-H23 lung) was 18.8 µM, the GI50 (NCI-H460 lung) was 1.89 µM and the TGI (NCI-H460 lung) was 3.63 µM. It also gave a GI50 (NCI-H522 lung) of 1.99 µM, a TGI (NCI-H522 lung) of 4.18 µM and a GI50 (NCI/ADR-RES ovarian) of 3.37 µM. For the same molecule, the TGI (NCI/ADR-RES ovarian) was 14 µM, the GI50 (OVCAR-3 ovarian) was 2 µM and the TGI (OVCAR-3 ovarian) was 4.08 µM. The GI50 (OVCAR-4 ovarian) was 4.71 µM, the TGI (OVCAR-4 ovarian) was 17.5 µM and the GI50 (OVCAR-5 ovarian) was 2.24 µM. The TGI (OVCAR-5 ovarian) was 5.63 µM, the GI50 (OVCAR-8 ovarian) was 2.51 µM and the TGI (OVCAR-8 ovarian) was 6.57 µM. For the same molecule, the GI50 (PC-3 prostate) was 2.51 µM, the TGI (PC-3 prostate) was 8.61 µM and the GI50 (RPMI-8226 leukemia) was 1.79 µM. The TGI (RPMI-8226 leukemia) was 4.31 µM, the GI50 (RXF 393 renal) was 1.92 µM and the TGI (RXF 393 renal) was 4.08 µM. It also gave a GI50 (SF-268 CNS) of 2.06 µM, a TGI (SF-268 CNS) of 5.06 µM and a GI50 (SF-295 CNS) of 2.01 µM. For the same molecule, the TGI (SF-295 CNS) was 3.99 µM, the GI50 (SF-539 CNS) was 1.78 µM and the TGI (SF-539 CNS) was 3.24 µM. The GI50 (SK-MEL-2 melanoma) was 2.1 µM, the TGI (SK-MEL-2 melanoma) was 4.5 µM and the GI50 (SK-MEL-28 melanoma) was 1.6 µM. The TGI (SK-MEL-28 melanoma) was 2.98 µM, the GI50 (SK-MEL-5 melanoma) was 1.71 µM and the TGI (SK-MEL-5 melanoma) was 3.12 µM. It also gave a GI50 (SK-OV-3 ovarian) of 2.09 µM, a TGI (SK-OV-3 ovarian) of 4.48 µM and a GI50 (SN12C renal) of 1.85 µM. The TGI (SN12C renal) was 3.44 µM, the GI50 (SNB-19 CNS) was 3.35 µM and the TGI (SNB-19 CNS) was 11.7 µM. It also gave a GI50 (SNB-75 CNS) of 1.78 µM, a TGI (SNB-75 CNS) of 4.36 µM and a GI50 (SR leukemia) of 1.92 µM. It also gave a TGI (SR leukemia) of 5.31 µM, a GI50 (SW-620 colon) of 1.87 µM and a TGI (SW-620 colon) of 3.69 µM. It also gave a GI50 (T-47D breast) of 1.85 µM, a TGI (T-47D breast) of 4.8 µM and a GI50 (TK-10 renal) of 1.97 µM. The TGI (TK-10 renal) was 3.85 µM, the GI50 (U251 CNS) was 1.78 µM and the TGI (U251 CNS) was 3.6 µM. It also gave a GI50 (UACC-257 melanoma) of 1.83 µM, a TGI (UACC-257 melanoma) of 3.79 µM and a GI50 (UACC-62 melanoma) of 1.71 µM. It also gave a TGI (UACC-62 melanoma) of 3.46 µM, a GI50 (UO-31 renal) of 1.39 µM and a TGI (UO-31 renal) of 2.82 µM.
